Assay [1] addresses T1, human prostaglandin E2 (subtype EP2) receptor (Homo sapiens, UniProt P43116).
T1 construct: host or cells: cells in a cell culture plate
The experiment in a line: cAMP agonism assay (HTRF cAMP detection). The format is cell-based. As to the method:
(§1) The binding of PGE2 to the EP2 subtype of the human PGE2 receptor induces activation of membrane-associated adenylate cyclases and leads to the formation of cAMP. In the presence of the phosphodiesterase inhibitor IBMX, cAMP which has accumulated due to this stimulation and been released by cell lysis is employed in a competitive detection method. In this assay, the cAMP in the lysate competes with cAMP-XL665 for binding of an Eu cryptate-labeled anti-cAMP antibody.
(§2) The two signals are measured in a suitable measuring instrument with a time lag, i.e. after the background fluorescence has declined.
(§3) The substance solutions (0.75 μl) containing 30% DMSO are introduced into an assay plate and dissolved in 16 μl of a KRSB+IBMX stimulation solution (1× Krebs-Ringer Bicarbonate Buffer; Sigma-Aldrich #K-4002; including 750 μM 3-isobutyl-1-methylxanthine Sigma-Aldrich #I-7018), and then 15 μl thereof are transferred into a media-free cell culture plate which has been washed with KRSB shortly beforehand.
After incubation at room temperature (RT; volume: ˜15 μl) for 60 minutes, the reaction is then stopped by adding 5 μl of lysis buffer and incubated at RT for a further 20 min (volume: ˜20 μl). The cell lysate is then transferred into a measuring plate and measured in accordance with the manufacturer's information (cyclic AMP kit Cisbio International #62AMPPEC).
(Time-resolved FRET reads energy transfer from a long-lived donor to a nearby acceptor.)

Assay [2] concerns the target T1, human prostaglandin E2 (subtype EP2) receptor. Kind of assay: cAMP antagonism assay (HTRF cAMP detection, in the presence of PGE2). The assay is classed as cell-based. Here is the method:
as §1, §2, §3
After preincubation at room temperature (RT) for 30 minutes, 5 μl of a 4×PGE2 solution (11 nM) are added, and incubation is carried out in the presence of the agonist at RT for a further 60 min (volume: ˜20 μl) before the reaction is then stopped by adding 5 μl of lysis buffer and incubated at RT for a further 20 min (volume: ˜25 μl). The cell lysate is then transferred into a measuring plate and measured in accordance with the manufacturer's information (cyclic AMP kit Cisbio International #62AMPPEC).

Assay [3] has as its system cumulus-oocyte complexes. The experiment in a line: Cumulus expansion assay in vitro. To be noted: competing with PGE2. The assay is classed as cell-based, mice. As to the method:
Folliculogenesis is induced in immature female mice (strain: CD1 (ICR) from Charles River) at an age of 14-18 days by a single dose (intraperitoneally) of 10 I.U. of PMSG (Pregnant Mare Serum Gonadotropin; Sigma G-4877, Batch 68H0909). 47-50 hours after the injection, the ovaries are removed and the cumulus-oocyte complexes are removed. The cumulus complex is not yet expanded at this stage.
The cumulus-oocyte complexes are then incubated with prostaglandin E2 (PGE2) (1 μM), vehicle control (ethanol) or test substances for 20-24 hours. Medium: alpha-MEM medium with 0.1 mM IBMX, pyruvates (0.23 mM), glutamines (2 mM), pen/strep (100 IU/ml pen. and 100 μg/ml strep.) and HSA (8 mg/ml). Cumulus expansion is then established through the division into four stages (according to Vanderhyden et al. Dev Biol. 1990 August; 140(2):307-317).

Setting [4] is: cAMP agonism assay, EP2 receptor, read-out: Agonism [ED50.
Setting [5] is: cAMP antagonism assay, EP2 receptor, in presence of PGE2, read-out: Antagonism [IC50.

Where two headings read alike, the source gives them in different places.

T1 sequence (P43116 whole entry): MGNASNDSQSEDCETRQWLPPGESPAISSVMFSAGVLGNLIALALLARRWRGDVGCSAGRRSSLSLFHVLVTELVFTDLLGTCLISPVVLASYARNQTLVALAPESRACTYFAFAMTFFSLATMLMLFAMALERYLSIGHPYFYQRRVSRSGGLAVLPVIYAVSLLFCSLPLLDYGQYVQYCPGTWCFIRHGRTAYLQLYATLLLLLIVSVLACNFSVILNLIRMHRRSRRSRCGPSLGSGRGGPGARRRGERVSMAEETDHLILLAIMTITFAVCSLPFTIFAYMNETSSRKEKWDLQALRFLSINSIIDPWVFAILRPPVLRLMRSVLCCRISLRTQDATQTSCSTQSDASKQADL

As usually defined, the IC50 is the concentration needed to halve the response being measured. With `O=C(NC1CCN(c2ccnc3cc(Cl)ccc23)CC1)c1cccc(Cl)c1Cl` [Example 25, 2,3-Dichloro-N-[1-(7-chloro-quinolin-4-yl)-piperidin-4-yl)-benzamide], the EC50 was greater than 19000 nM in assay [1] (setting [4]) and greater than 19000 nM in assay [1] (cellular agonism test, read-out: EC50 in the cellular agonism test). Moreover, the IC50 in assay [2] (antagonism test, read-out: IC50 in the antagonism test) turned out to be 200 nM. For the same molecule, the “suppression of cumulus expansion” value in assay [3] (one tenth of the concentration (of 100-200 μM)) was roughly 50%.
Turning to `N#Cc1ccc2c(N3CCC(NC(=O)c4cccc(Cl)c4Cl)CC3)ccnc2c1` [Example 40, 2,3-Dichloro-N-[1-(7-cyano-quinolin-4-yl)-piperidin-4-yl]-benzamide], in assay [1] (setting [4]), the EC50 is greater than 19000 nM. Also, the IC50 in assay [2] (setting [5]) was 900 nM.
In the case of `O=C(NC1CCN(c2ccnc3cc(Cl)ccc23)CC1)c1ccccc1I` [Example 10, N-[1-(7-Chloro-quinolin-4-yl)-piperidin-4-yl]-2-iodo-benzamide], the IC50 in assay [2] (setting [5]) stood at 1300 nM.
Turning to `O=C(NC1CCN(c2ccnc3cc(Cl)ccc23)CC1)c1ccc(F)c(F)c1F` [Example 20, N-[1-(7-Chloro-quinolin-4-yl)-piperidin-4-yl]-2,3,4-trifluoro-benzamide], the EC50 in assay [1] (setting [4]) is greater than 19000 nM. Further, in assay [2] (setting [5]), the IC50 was determined as 1600 nM.
In the case of `O=C(NC1CCN(c2ccnc3c(Cl)cccc23)CC1)c1cccc(Cl)c1Cl` [Example 35, 2,3-Dichloro-N-[1-(8-chloro-quinolin-4-yl)-piperidin-4-yl]-benzamide], the EC50 in assay [1] (setting [4]) was greater than 19000 nM. Moreover, in assay [2] (setting [5]), the IC50 was 100 nM.
In the case of `O=C(NC1CCN(c2ccnc3cc(Cl)ccc23)CC1)c1ccccc1Cl` [Example 4, 2-Chloro-N-[1-(7-chloro-quinolin-4-yl)-piperidin-4-yl]-benzamide], the EC50 in assay [1] (setting [4]) is greater than 19000 nM. Further, the IC50 in assay [2] (setting [5]) is 1000 nM.
With `CC(C)Oc1ccc2c(=O)c3cc(C(=O)O)ccc3oc2c1` [AH 6809, reference compound], the “suppression of cumulus expansion” value in assay [3] (concentration of 100-200 μM) was “about 20%”.
For the molecule `O=C(NC1CCN(c2ccnc3cc(Cl)ccc23)CC1)c1ccccc1Br` [Example 1, 2-Bromo-N-[1-(7-chloro-quinolin-4-yl)-piperidin-4-yl]-benzamide], the EC50 in assay [1] (setting [4]) is greater than 19000 nM. Further, the IC50 in assay [2] (setting [5]) worked out at 600 nM.
Consider `O=C(NC1CCN(c2ccnc3cc(Br)ccc23)CC1)c1cccc(Cl)c1Cl` [Example 36, N-[1-(7-Bromo-quinolin-4-yl)-piperidin-4-yl]-2,3-dichloro-benzamide], for which the EC50 in assay [1] (setting [4]) is greater than 19000 nM. Besides, the IC50 in assay [2] (setting [5]) was determined as 100 nM.
Regarding `O=C(NC1CCN(c2ccnc3cc(Cl)ccc23)CC1)c1ccc([N+](=O)[O-])o1` [Example 26, 5-Nitro-furan-2-carboxylic acid [1-(7-chloro-quinolin-4-yl)-piperidin-4-yl]-amide], the EC50 in assay [1] (setting [4]) is greater than 19000 nM. Moreover, the 50% inhibitory concentration (IC50) in assay [2] (setting [5]) amounted to 2000 nM.
Turning to `O=C(NC1CCN(c2ccnc3cc(C(F)(F)F)ccc23)CC1)c1cccc(Cl)c1Cl` [Example 34, 2,3-Dichloro-N-[1-(7-trifluoromethyl-quinolin-4-yl)-piperidin-4-yl]-benzamide], the EC50 in assay [1] (setting [4]) was greater than 19000 nM. The IC50 in assay [2] (setting [5]) worked out at 200 nM.
Consider `O=C(NC1CCN(c2ncnc3cc(Cl)ccc23)CC1)c1cccc(Cl)c1Cl` [Example 37, 2,3-Dichloro-N-[1-(7-chloro-quinazolin-4-yl)-piperidin-4-yl]-benzamide], for which, in assay [1] (setting [4]), the EC50 is greater than 19000 nM. Also, the IC50 in assay [2] (setting [5]) turned out to be 600 nM.

The record behind these values is patent US20080125463A1, “N-(1-hetarylpiperidin-4-yl)(het)arylamides as EP2 receptor modulators” (priority 2006, published 2008).
